Assay [1] deals with HCV genotype 1b (Con1) replicon in HUH-7 cells. In words: HCV replicon luciferase reporter assay, genotype 1b. The class given is cell-based. As to conditions: Hepatitis C virus, Huh-7, 72 h, HCV genotype 1b replicon luciferase, 3 days incubation. A digest of the protocol: (§1)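 Replicon inhibition for both genotypes was measured as Renilla luciferase signal (EnduRen, 7.5 μM final, 2 h) after 3-day, 37° C exposure of replicon-bearing HUH-7 cells in 4% FCS DMEM, 0.5% DMSO. The 1b construct carries S1179I; the 1a H77 construct carries P1496L and S2204I. Twenty-point, 3-fold dilutions were fitted four-parametrically for EC50, and CC50 was taken from multiplexed Cell Titer-Blue.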

The test system of assay [2] is HCV genotype 1a (H77 strain) replicon in HUH-7 cells. In words: HCV replicon luciferase reporter assay, genotype 1a. As to conditions: Hepatitis C virus, Huh-7, 72 h, HCV genotype 1a replicon luciferase, 3 days incubation. The class given is cell-based. A digest of the protocol:
as §1
A general note: In antiviral work, replicon cells carry a viral genome segment that copies itself.

The values below come from US9499550B2 (BRISTOL-MYERS SQUIBB COMPANY, priority 2012, dated 2016).

Where two headings read alike, the source gives them in different places. Where only a bound is given, the exact number is not on record here.

The term EC50 denotes the concentration giving half of the maximal effect. As to `CC[C@@H]1C[C@@H](C)CC/C=C\[C@@H]2C[C@@]2(C(=O)NS(=O)(=O)C2CC2)NC(=O)[C@@H]2C[C@@H](Oc3nccc4c5c(ccc34)N(C)CCO5)CN2C(=O)[C@H]1NC(=O)OC(C)(C)C(F)(F)F` [Compound 5309, 1,1,1-trifluoro-2-methylpropan-2-yl((2R,6S,7R,9S,13aS,14aR,16aS,Z)-14a-((cyclopropylsulfonyl)carbamoyl)-7-ethyl-9-methyl-2-((4-methyl-3,4-dihydro-2H-[1,4]oxazino[2,3-f]isoquinolin-7-yl)oxy)-5,16-dioxo-1,2,3,5,6,7,8,9,10,11,13a,14,14a,15,16,16a-hexadecahydrocyclopropa[e]pyrrolo[1,2-a][1,4]diazacyclopentadecin-6-yl)carbamate], the EC50 in assay [1] (read-out: LE_1b (EC50, range)) was less than 5.46 nM; in assay [2] (read-out: LE_1a (EC50, range)) it was 4.82 to 103 nM.

Turning to `CC[C@@H]1C[C@H](C)CC/C=C\[C@@H]2C[C@@]2(C(=O)NS(=O)(=O)C2CC2)NC(=O)[C@@H]2C[C@@H](Oc3nccc4c5c(ccc34)N(C)CCO5)CN2C(=O)[C@H]1NC(=O)OC(C)(C)C(F)(F)F` [Compound 5310, 1,1,1-trifluoro-2-methylpropan-2-yl((2R,6S,7R,9R,13aS,14aR,16aS,Z)-14a-((cyclopropylsulfonyl)carbamoyl)-7-ethyl-9-methyl-2-((4-methyl-3,4-dihydro-2H-[1,4]oxazino[2,3-f]isoquinolin-7-yl)oxy)-5,16-dioxo-1,2,3,5,6,7,8,9,10,11,13a,14,14a,15,16,16a-hexadecahydrocyclopropa[e]pyrrolo[1,2-a][1,4]diazacyclopentadecin-6-yl)carbamate], the concentration for a half-maximal effect (EC50) in assay [1] (read-out: LE_1b (EC50, range)) was less than 5.46 nM; in assay [2] (read-out: LE_1a (EC50, range)), less than 5.46 nM.

For `[2H]C([2H])([2H])C(OC(=O)N[C@@H]1C(=O)N2C[C@H](Oc3nccc4c5c(ccc34)N(C)CCO5)C[C@H]2C(=O)N[C@]2(C(=O)NS(=O)(=O)C3CC3)C[C@H]2/C=C\CC[C@H](C)C[C@H]1CC)(C([2H])([2H])[2H])C(F)(F)F` [Compound 5311, 1,1,1,3,3,3-hexadeutero-2-(trifluoromethyl)propan-2-yl((2R,6S,7R,9S,13aS,14aR,16aS,Z)-14a-((cyclopropylsulfonyl)carbamoyl)-7-ethyl-9-methyl-2-((4-methyl-3,4-dihydro-2H-[1,4]oxazino[2,3-f]isoquinolin-7-yl)oxy)-5,16-dioxo-1,2,3,5,6,7,8,9,10,11,13a,14,14a,15,16,16a-hexadecahydrocyclopropa[e]pyrrolo[1,2-a][1,4]diazacyclopentadecin-6-yl)carbamate], the EC50 in assay [1] (read-out: LE_1b (EC50, range)) is less than 5.46 nM; in assay [2] (read-out: LE_1a (EC50, range)), less than 5.46 nM.

With `[2H]C([2H])([2H])C(OC(=O)N[C@@H]1C(=O)N2C[C@H](Oc3nccc4c5c(ccc34)N(C)CCO5)C[C@H]2C(=O)N[C@]2(C(=O)NS(=O)(=O)C3CC3)C[C@H]2/C=C\CC[C@@H](C)C[C@H]1CC)(C([2H])([2H])[2H])C(F)(F)F` [Compound 5312, 1,1,1,3,3,3-hexadeutero-2-(trifluoromethyl)propan-2-yl((2R,6S,7R,9R,13aS,14aR,16aS,Z)-14a-((cyclopropylsulfonyl)carbamoyl)-7-ethyl-9-methyl-2-((4-methyl-3,4-dihydro-2H-[1,4]oxazino[2,3-f]isoquinolin-7-yl)oxy)-5,16-dioxo-1,2,3,5,6,7,8,9,10,11,13a,14,14a,15,16,16a-hexadecahydrocyclopropa[e]pyrrolo[1,2-a][1,4]diazacyclopentadecin-6-yl)carbamate], the 50% effective concentration (EC50) in assay [1] (read-out: LE_1b (EC50, range)) is less than 5.46 nM; in assay [2] (read-out: LE_1a (EC50, range)), less than 5.46 nM.

On to `CC[C@@H]1C[C@@H](C)CC/C=C\[C@@H]2C[C@@]2(C(=O)NS(=O)(=O)C2CC2)NC(=O)[C@@H]2C[C@@H](Oc3nccc4c5c(ccc34)N(C)CCO5)CN2C(=O)[C@H]1NC(=O)O[C@@H]1C[C@@H]2C[C@@H]2C1` [Compound 5313, (1R,3r,5 S)-bicyclo[3.1.0]hexan-3-yl((2R,6S,7R,9S,13aS,14aR,16aS,Z)-14a-((cyclopropylsulfonyl)carbamoyl)-7-ethyl-9-methyl-2-((4-methyl-3,4-dihydro-2H-[1,4]oxazino[2,3-f]isoquinolin-7-yl)oxy)-5,16-dioxo-1,2,3,5,6,7,8,9,10,11,13a,14,14a,15,16,16a-hexadecahydrocyclopropa[e]pyrrolo[1,2-a][1,4]diazacyclopentadecin-6-yl)carbamate], for which the EC50 was less than 5.46 nM in assay [1] (read-out: LE_1b (EC50, range)) and less than 5.46 nM in assay [2] (read-out: LE_1a (EC50, range)).

As for `CC[C@@H]1C[C@H](C)CC/C=C\[C@@H]2C[C@@]2(C(=O)NS(=O)(=O)C2CC2)NC(=O)[C@@H]2C[C@@H](Oc3nccc4c5c(ccc34)N(C)CCO5)CN2C(=O)[C@H]1NC(=O)O[C@@H]1C[C@@H]2C[C@@H]2C1` [Compound 5314, (1R,3r,5S)-bicyclo[3.1.0]hexan-3-yl((2R,6S,7R,9R,13aS,14aR,16aS,Z)-14a-((cyclopropylsulfonyl)carbamoyl)-7-ethyl-9-methyl-2-((4-methyl-3,4-dihydro-2H-[1,4]oxazino[2,3-f]isoquinolin-7-yl)oxy)-5,16-dioxo-1,2,3,5,6,7,8,9,10,11,13a,14,14a,15,16,16a-hexadecahydrocyclopropa[e]pyrrolo[1,2-a][1,4]diazacyclopentadecin-6-yl)carbamate], the EC50 is 1.06 nM in assay [1] (read-out: LE_1b (EC50)); less than 5.46 nM in assay [1] (read-out: LE_1b (EC50, range)); 1.59 nM in assay [2] (read-out: LE_1a (EC50)); less than 5.46 nM in assay [2] (read-out: LE_1a (EC50, range)).

For `CC[C@@H]1C[C@@H](C)CC/C=C\[C@@H]2C[C@@]2(C(=O)NS(=O)(=O)C2CC2)NC(=O)[C@@H]2C[C@@H](Oc3nccc4c5c(ccc34)N(C)CCO5)CN2C(=O)[C@H]1NC(=O)NC(C)(C)C` [Compound 5315, (2R,6S,7R,9S,13aS,14aR,16aS,Z)-6-(3-(tert-butyl)ureido)-N-(cyclopropylsulfonyl)-7-ethyl-9-methyl-2-((4-methyl-3,4-dihydro-2H-[1,4]oxazino[2,3-f]isoquinolin-7-yl)oxy)-5,16-dioxo-1,2,3,5,6,7,8,9,10,11,13a,14,14a,15,16,16a-hexadecahydrocyclopropa[e]pyrrolo[1,2-a][1,4]diazacyclopentadecine-14a-carboxamide], the EC50 in assay [1] (read-out: LE_1b (EC50, range)) lay in the range of 4.82 to 103 nM; in assay [2] (read-out: LE_1a (EC50, range)) it was 4.82 to 103 nM.

As for `CC[C@@H]1C[C@H](C)CC/C=C\[C@@H]2C[C@@]2(C(=O)NS(=O)(=O)C2CC2)NC(=O)[C@@H]2C[C@@H](Oc3nccc4c5c(ccc34)N(C)CCO5)CN2C(=O)[C@H]1NC(=O)NC(C)(C)C` [Compound 5316, (2R,6S,7R,9R,13aS,14aR,16aS,Z)-6-(3-(tert-butyl)ureido)-N-(cyclopropylsulfonyl)-7-ethyl-9-methyl-2-((4-methyl-3,4-dihydro-2H-[1,4]oxazino[2,3-f]isoquinolin-7-yl)oxy)-5,16-dioxo-1,2,3,5,6,7,8,9,10,11,13a,14,14a,15,16,16a-hexadecahydrocyclopropa[e]pyrrolo[1,2-a][1,4]diazacyclopentadecine-14a-carboxamide], the 50% effective concentration (EC50) is less than 5.46 nM in assay [1] (read-out: LE_1b (EC50, range)) and less than 5.46 nM in assay [2] (read-out: LE_1a (EC50, range)).

On to `CC[C@@H]1C[C@@H](C)CC/C=C\[C@@H]2C[C@@]2(C(=O)NS(=O)(=O)C2CC2)NC(=O)[C@@H]2C[C@@H](Oc3nccc4c5c(ccc34)N(C)CCO5)CN2C(=O)[C@H]1NC(=O)C(=O)N(C)C` [Compound 5317, N1-((2R,6S,7R,9S,13aS,14aR,16aS,Z)-14a-((cyclopropylsulfonyl)carbamoyl)-7-ethyl-9-methyl-2-((4-methyl-3,4-dihydro-2H-[1,4]oxazino[2,3-f]isoquinolin-7-yl)oxy)-5,16-dioxo-1,2,3,5,6,7,8,9,10,11,13a,14,14a,15,16,16a-hexadecahydrocyclopropa[e]pyrrolo[1,2-a][1,4]diazacyclopentadecin-6-yl)-N2,N2-dimethyloxalamide], for which the EC50 in assay [1] (read-out: LE_1b (EC50, range)) fell in the range of 4.82 to 103 nM; in assay [2] (read-out: LE_1a (EC50, range)), 4.82 to 103 nM.
